Test system: human polymorphonuclear cells (PMNs)
Assay: In vitro PMN elastolysis assay (3H-elastin)
Type: cell-based
Conditions: at 1.2 μM; n=3 different donors at 3.6×10^5 cells per well
Description: In Vitro PMN Elastolysis Assay
This assay is used to determine the elastolytic potential of human polymorphonuclear cells (PMNs) and assess the proportion of degradation due to neutrophil elastase [cf. Z. W. She et al., Am. J. Respir. Cell. Mol. Biol. 9, 386-392 (1993)].
Tritiated elastin, in suspension, is coated on to a 96 well plate at 10 μg per well. Test and reference [ZD-0892 (J. Med. Chem. 40, 1876-1885, 3173-3181 (1997), WO 95/21855) and α1 protease inhibitor (α1PI)] compounds are added to the wells at the appropriate concentrations. Human PMNs are separated from peripheral venous blood of healthy donors and resuspended in culture media. The neutrophils are added to the coated wells at concentrations ranging between 1×10^6 to 1×10^5 cells per well. Porcine pancreatic elastase (1.3 μM) is used as a positive control for the assay, and α1PI (1.2 μM) is used as the positive inhibitor of neutrophil elastase. The cellular control is PMNs without compound at each appropriate cell density. The cells plus compounds are incubated in a humidified incubator at 37° C. for 4 hours. The plates are centrifuged to allow the harvest of cell supernatant only. […] The plates are dried until no liquid is visible in the wells and read in a beta counter for 3 minutes per well. […]
The compounds of this invention are evaluated for their inhibitory activity in this HNE-dependent model of neutrophil elastolysis.

| Compound | inhibition of elastolysis (mean±s.e.m.) [%] |
| --- | --- |
| α1PI: α1 protease inhibitor, used as the positive inhibitor of neutrophil elastase | 83.46±3.97 |

Same assay, conditions: n=2 different donors at 3.6×10^5 cells per well; read-out: IC50 (mean±s.e.m.)

| IC50 [nM] | Compound |
| --- | --- |
| 45.5 ± 7.75 | COc1ccc(C(=O)N[C@H](C(=O)N2CCC[C@H]2C(=O)N[C@H](C(=O)C(F)(F)F)C(C)C)C(C)C)cc1 [ZD-0892] |

Biological target: T1, human neutrophil elastase (HNE) (Homo sapiens, UniProt P08246)
T1 construct: purchased SERVA Electrophoresis GmbH, Heidelberg, Germany #20927.01
T1 sequence (P08246 30-267): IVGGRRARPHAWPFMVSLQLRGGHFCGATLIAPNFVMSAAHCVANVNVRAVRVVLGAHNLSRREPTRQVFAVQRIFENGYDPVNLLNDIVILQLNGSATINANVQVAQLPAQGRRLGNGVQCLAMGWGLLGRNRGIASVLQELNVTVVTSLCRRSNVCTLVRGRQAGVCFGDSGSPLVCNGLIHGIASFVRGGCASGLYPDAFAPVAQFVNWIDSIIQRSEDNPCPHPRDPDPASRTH
Assay: In vitro inhibition of HNE using a fluorogenic peptide substrate (MeOSuc-Ala-Ala-Pro-Val-AMC)
Type: biochemical
Conditions: 384 MTP format
Description: I. In Vitro Enzyme Assays of Human Neutrophil Elastase (HNE) assay buffer: 0.1 M HEPES-NaOH buffer pH 7.4, 0.5 M NaCl, 0.1% (w/v) bovine serum albumin; suitable concentration (see below) of HNE (18 U/mg lyophil., #20927.01, SERVA Electrophoresis GmbH, Heidelberg, Germany) in assay buffer; suitable concentration (see below) of substrate in assay buffer; suitable concentration of test compounds diluted with assay buffer from a 10 mM stock solution in DMSO.
In Vitro Inhibition of HNE Using a Fluorogenic Peptide Substrate
Continuous Read-Out Signal, 384 MTP Assay Format
In this protocol, the elastase substrate MeOSuc-Ala-Ala-Pro-Val-AMC (#324740, Calbiochem-Novabiochem Corporation, Merck KGaA, Darmstadt, Germany) is used. The test solution is prepared by mixing 10 μl of test compound dilution, 20 μl of HNE enzyme dilution (final concentration 8-0.4 μU/ml, routinely 2.1 μU/ml) and 20 μl of substrate dilution (final concentration 1 mM-1 μM, routinely 20 μM), respectively. The solution is incubated for 0-2 hrs at 37° C. (routinely one hour). The fluorescence of the liberated AMC due to the enzymatic reaction is measured at 37° C. (TECAN spectra fluor plus plate reader). The rate of increase of the fluorescence (ex. 395 nm, em. 460 nm) is proportional to elastase activity. IC50 values are determined by RFU-versus-[I] plots. Km and Km(app.) values are determined by Lineweaver-Burk plots and converted to Ki values by Dixon plots.

| IC50 [nM] | Compound |
| --- | --- |
| 20 | CCOC(=O)C1=C(C)N(c2cccc(Cl)c2)C(SCCCOC(N)=O)=NC1c1ccc(C#N)cc1 (stereo not shown) [Example 33] |
| 30 | CC1=C(C(=O)O)C(c2ccc(C#N)cc2)NC(=S)N1c1cccc(C(F)(F)F)c1 (stereo not shown) [Example 19, 4-(4-Cyanophenyl)-6-methyl-2-thioxo-1-[3-(trifluoromethyl)phenyl]-1,2,3,4-tetrahydropyrimidine-5-carboxylic acid] |
| 10 | CCOC(=O)C1=C(C)N(c2cccc(C(F)(F)F)c2)C(=S)N(C(=O)C2CCC2)C1c1ccc(C#N)cc1 (stereo not shown) [Example 29] |
| 12 | CCN(CC)CCOC(=O)C1=C(C)N(c2cccc(C(F)(F)F)c2)C(SC)=NC1c1ccc(C#N)cc1 (stereo not shown) [Example 58, 2-(Diethylamino)ethyl 4-(4-cyanophenyl)-6-methyl-2-(methylsulfanyl)-1-[3-(trifluoromethyl)phenyl]-1,4-dihydro-5-pyrimidinecarboxylate] |
| 80 | CCOC(=O)C1=C(C)N(c2cccc(C(F)(F)F)c2)C(SC)=NC1c1ccc(C#N)cc1C (stereo not shown) [Example 31, Ethyl 4-(4-cyano-2-methylphenyl)-6-methyl-2-(methylsulfanyl)-1-[3-(trifluoromethyl)phenyl]-1,4-dihydro-5-pyrimidinecarboxylate] |

Further lines, the compound ahead of its results:

| Compound | IC50 [nM] |
| --- | --- |
| CCOC(=O)C1=C(C)N(c2cccc(C(F)(F)F)c2)C(SCCN(CC)CC)=NC1c1ccc(C#N)cc1 (stereo not shown) [Example 14, Ethyl 4-(4-cyanophenyl)-2-{[2-(diethylamino)ethyl]sulfanyl}-6-methyl-1-[3-(trifluoromethyl)phenyl]-1,4-dihydro-5-pyrimidinecarboxylate] | 10 |
| CCOC(=O)C1=C(C)N(c2cccc(C(F)(F)F)c2)C(SCC)=NC1c1ccc(C#N)cc1 (stereo not shown) [Example 9] | 40 |
| CCOC(=O)C1=C(C)N(c2cccc(C(F)(F)F)c2)C(SC)=NC1c1ccc(C#N)cc1 (stereo not shown) [Example 7] | 10 |
| CCOC(=O)C1=C(C)N(c2cccc(C(F)(F)F)c2)C(SCc2ccncc2)=NC1c1ccc(C#N)cc1 (stereo not shown) [Example 12, Ethyl 4-(4-cyanophenyl)-6-methyl-2-[(4-pyridinylmethyl)sulfanyl]-1-[3-(trifluoromethyl)phenyl]-1,4-dihydro-5-pyrimidinecarboxylate] | 100 |
| CC1=C(C(=O)N(C)C)C(c2ccc(C#N)cc2)NC(=S)N1c1cccc(C(F)(F)F)c1 (stereo not shown) [Example 6, 4-(4-Cyanophenyl)-N,N,6-trimethyl-2-thioxo-1-[3-(trifluoromethyl)phenyl]-1,2,3,4-tetrahydro-5-pyrimidinecarboxamide] | 70 |
| CC(=O)C1=C(C)N(c2cccc(C(F)(F)F)c2)C(=S)NC1c1ccc(C#N)cc1 (stereo not shown) [Example 1, 4-{5-Acetyl-6-methyl-2-thioxo-1-[3-(trifluoromethyl)phenyl]-1,2,3,4-tetrahydro-4-pyrimidinyl}benzonitrile] | 13 |
| CCOC(=O)C1=C(C)N(c2cccc(C(F)(F)F)c2)C(=S)NC1c1ccc(C#N)cc1 (stereo not shown) [Example 3, Ethyl 4-(4-cyanophenyl)-6-methyl-2-thioxo-1-[3-(trifluoromethyl)phenyl]-1,2,3,4-tetrahydro-5-pyrimidinecarboxylate] | 9 |
| CCOC(=O)C1=C(C)N(c2cccc(C(F)(F)F)c2)C(SCc2ncc[nH]2)=NC1c1ccc(C#N)cc1 (stereo not shown) [Example 15, Ethyl 4-(4-cyanophenyl)-2-[(1H-imidazol-2-ylmethyl)sulfanyl]-6-methyl-1-[3-(trifluoromethyl)phenyl]-1,4-dihydro-5-pyrimidinecarboxylate] | 5 |
| CC1=C(C(N)=O)C(c2ccc(C#N)cc2)NC(=S)N1c1cccc(C(F)(F)F)c1 (stereo not shown) [Example 4, 4-(4-Cyanophenyl)-6-methyl-2-thioxo-1-[3-(trifluoromethyl)phenyl]-1,2,3,4-tetrahydro-5-pyrimidinecarboxamide] | 23 |

— US8173665B2, “I-pheny 1-3,4-dihydropyrimidin-2(1H)-one derivatives and their use” (Bayer Pharma Aktiengesellschaft, priority 2002, dated 2012)
